Results as given in US10689399B2, “Substituted 3,4,5,6,8,10,14,14a-octahydro-2h-2,6-methanopyrido[1′,2′:4,5]pyrazino[2,1-b][1,3]oxazocines and methods for treating viral infections” (Gilead Sciences, Inc., priority 2012, dated 2020).

Test system: HIV-IIIb
Assay: Antiviral assay in MT4 cells
Format: cell-based
Details: Human immunodeficiency virus 1, IIIB, MT4, 120 h, MT4 cells infected with HIV-IIIb, 5 days, CellTiter-Glo; read-out: EC50 nM in MT-4
How it was run: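 MT4 cells pre-infected with HIV-IIIb (0.004 m.o.i.) at 37 °C, or mock-infected, then seeded at 2000 cells/well onto 3-fold serially diluted compound (10 concentrations, quadruplicate) in RPMI 1640 with 10% FBS. After 5 days at 37 °C, cell viability read by CellTiter-Glo luminescence.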

| SMILES | EC50 [nM] |
| --- | --- |
| O=C(NCc1ccc(Cl)cc1F)c1cn2c(c(O)c1=O)C(=O)N1[C@H]3CC[C@H](C3)[C@@H]1C2 [Compound 92, (1R,4S,12aR)—N-(4-chloro-2-fluorobenzyl)-7-hydroxy-6,8-dioxo-1,2,3,4,6,8,12,12a-octahydro-1,4-methanodipyrido[1,2-a:1′,2′-d]pyrazine-9-carboxamide] | 18.6 |
| O=C(NCc1c(F)cc(F)cc1Cl)c1cn2c(c(O)c1=O)C(=O)N1[C@H]3CC[C@H](C3)[C@@H]1C2 [Compound 93, (1R,4S,12aR)—N-(2-chloro-4,6-difluorobenzyl)-7-hydroxy-6,8-dioxo-1,2,3,4,6,8,12,12a-octahydro-1,4-methanodipyrido[1,2-a:1′,2′-d]pyrazine-9-carboxamide] | 2.2 |
| O=C(NCc1ccccc1)c1cn2c(c(O)c1=O)C(=O)N1[C@H]3CC[C@H](C3)[C@@H]1C2 [Compound 94, (1R,4S,12aR)—N-benzyl-7-hydroxy-6,8-dioxo-1,2,3,4,6,8,12,12a-octahydro-1,4-methanodipyrido[1,2-a:1′,2′-d]pyrazine-9-carboxamide] | 11.5 |
| O=C(NCc1c(F)cc(F)cc1F)c1cn2c(c(O)c1=O)C(=O)N1[C@@H](C2)[C@H]2C[C@@H]1C(F)(F)C2 [Compound 98, (1S,4R,12aR)-3,3-difluoro-7-hydroxy-6,8-dioxo-N-(2,4,6-trifluorobenzyl)-1,2,3,4,6,8,12,12a-octahydro-1,4-methanodipyrido[1,2-a:1′,2′-d]pyrazine-9-carboxamide] | 2.4 |
| C[C@H]1C[C@@H]2C[C@H]1N1C(=O)c3c(O)c(=O)c(C(=O)NCc4c(F)cc(F)cc4F)cn3C[C@@H]21 [Compound 99, (1R,3S,4R,12aR)-7-hydroxy-3-methyl-6,8-dioxo-N-(2,4,6-trifluorobenzyl)-1,2,3,4,6,8,12,12a-octahydro-1,4-methanodipyrido[1,2-a:1′,2′-d]pyrazine-9-carboxamide] | 2 |
| O=C(NCc1ccc(F)cc1F)c1cn2c(c(O)c1=O)C(=O)N1[C@H]3CC[C@H](CC3)[C@H]1C2 [Compound 100, (1R,4R,12aS)—N-(2,4-difluorobenzyl)-7-hydroxy-6,8-dioxo-1,2,3,4,6,8,12,12a-octahydro-1,4-ethanodipyrido[1,2-a:1′,2′-d]pyrazine-9-carboxamide] | 2.2 |
| O=C(NCc1c(F)cc(F)cc1F)c1cn2c(c(O)c1=O)C(=O)N1[C@H]3CC[C@H](CC3)[C@H]1C2 [Compound 101, (1R,4R,12aS)-7-hydroxy-6,8-dioxo-N-(2,4,6-trifluorobenzyl)-1,2,3,4,6,8,12,12a-octahydro-1,4-ethanodipyrido[1,2-a:1′,2′-d]pyrazine-9-carboxamide] | 2.1 |
| O=C(NCc1c(F)cc(F)cc1F)c1cn2c(c(O)c1=O)C(=O)N1[C@H]3CC[C@H](CC3)[C@@H]1C2 [Compound 102, (1S,4S,12aR)-7-hydroxy-6,8-dioxo-N-(2,4,6-trifluorobenzyl)-1,2,3,4,6,8,12,12a-octahydro-1,4-ethanodipyrido[1,2-a:1′,2′-d]pyrazine-9-carboxamide] | 2.3 |
| O=C(NCc1c(F)cc(F)cc1F)c1cn2c(c(O)c1=O)C(=O)N1[C@@H]3C[C@@H](C(F)C3F)[C@@H]1C2 (stereo partly drawn) [Compound 103, (1R,4R,12aR)-2,3-difluoro-7-hydroxy-6,8-dioxo-N-(2,4,6-trifluorobenzyl)-1,2,3,4,6,8,12,12a-octahydro-1,4-methanodipyrido[1,2-a:1′,2′-d]pyrazine-9-carboxamide] | 10.3 |
